Reference: patent publication US20070258912A1, “Use of Fluorescent Whitening Agents as Antimicrobials” (priority 2004, published 2007)
Read-outs that look alike come from different tables or passages of the source.

What was measured:
Type in all cases: cell-based
[1] = system: Corynebacterium minutissimum; assay: MIC in the agar incorporation test; settings: read-out: MIC Corynebacterium minutissimum
Actinomyces viscosus = assay: MIC against oral microorganisms via broth dilution
Protocol: (§1) Determination of the Minimum Inhibition Concentration (MIC Value) Against Different Oral Microorganisms Via Broth Dilution
(§2) 1500 ppm stock solutions of the substances are prepared in ethanol and pipetted into the growth medium to yield concentrations between 0.94 and 15 ppm. Bacteria are taken from blood agar plates with cotton swabs and adjusted in the appropriate growth medium to yield an optical density corresponding to McFarland 0.5. This suspension is directly used in the case of F. nucleatum and P. nigrescens. For the other strains, the suspension is diluted 1:20. 0.1 ml of these bacterial suspensions are added to 2 ml of the substance solutions. After the incubation time, the tubes are assessed for growth (turbidity).
(§3) Test Organisms: *Actinobacillus actinomycetemcomitans ATCC 43718 *Stretococcus gordonii ATCC 10558 *Streptococcus mutans ATCC 33402 Actinomyces viscosus ATCC 43146 Fusobacterium nucleatum subsp. polymorphum ATCC 10953 Porphyromonas gingivalis ATCC 33277
(§4) Prevotella nigrescens ATCC 33563

Porphyromnas gingivalis = assay: MIC against oral microorganisms via broth dilution; settings: read-out: MIC Porphyromnas gingivalis
Protocol: as §1, §2, §3, §4

[2] = system: Fusobacterium nucleatum subsp. polymorphum; assay: MIC against oral microorganisms via broth dilution; settings: ATCC10953, broth dilution 0.94-15 ppm, 7-10 days at 37° C. anaerobically, ATCC 10953, read-out: MIC Fusobacterium nucleatum subsp. polymorphum
Protocol: as §1, §2, §3, §4

Streptococcus gordonii = assay: MIC against oral microorganisms via broth dilution
Protocol: as §1, §2, §3, §4

[3] = system: Actinobacillus actinomycetemcomitans; assay: MIC against oral microorganisms via broth dilution; settings: Aggregatibacter actinomycetemcomitans, ATCC43718; broth dilution 0.94-15 ppm, 24 h aerobically with 10% CO2, ATCC 43718
Protocol: as §1, §2, §3, §4

Prevotella nigrescens = assay: MIC against oral microorganisms via broth dilution
Protocol: as §1, §2, §3, §4

Streptococcus mutans = assay: MIC against oral microorganisms via broth dilution
Protocol: as §1, §2, §3, §4

[4] = system: Actinomyces viscosus ATCC 43146; assay: Substantivity on hydroxyapatite and growth inhibition; settings: 500 ppm ethanolic solution; discs pretreated with artificial saliva; 6 and 24 hours at 37° C.; vs untreated control
Protocol: Hydroxyapatite discs are incubated in artificial saliva (German Dental Magazine DZZ 5/2002) for 4 hrs under stirring, rinsed in NaCl, dried over night, and then incubated in ethanolic solutions of the test substances. Then all treated discs are put in 12 well Nucleon surface titre plates (one disc per well), and Caso Broth inoculated with the test strain. The titre plates are incubated at 37° C., samples are taken after 6 and 24 hrs and the colony count is determined by plate count.

Corynebacterium xerosis = assay: MIC in the agar incorporation test
Protocol: (§5) Determination of Minimum Inhibitory Concentration (MIC Values) in the Agar Incorporation Test
(§6) 1% stock solutions of the substances are prepared in an appropriate solvent and diluted in serial dilutions 1:2 (to yield end concentrations in the agar of 500-1.9 ppm). 0.3 ml of each dilution step is mixed with 15 ml of nutrient medium while the latter is still liquid. After the nutrient medium has solidified, 10 μl of each test strain in 0.85% NaCl solution are spotted onto the agar medium.
(§7) The plates are incubated at 37° C. for 24 hours and then the highest dilution (lowest concentration) of the test substance at which growth is no longer observable is determined.
(§8) Test Organisms: Staphylococcus aureus ATCC 6583 Staphylococcus epidermidis ATCC 12228 Corynebacterium xerosis ATCC 373 Propionibacterium acnes ATCC Escherichia coli ATCC 10536 Salmonella choleraesuis ATCC Klebsiella pneumoniae ATCC *Candida albicans ATCC 10231
(§9) *Aspergillus niger ATCC 6275

Staphylococcus epidermis = assay: MIC in the agar incorporation test
Protocol: as §5, §6, §7, §8, §9

Klebsiella pneumoniae = assay: MIC in the agar incorporation test; settings: Mueller Hinton agar, 24 hours at 37° C.
Protocol: as §5, §6, §7, §8, §9

Staphylococcus aureus = assay: MIC in the agar incorporation test
Protocol: as §5, §6, §7, §8, §9

Propionibacterium acnes = assay: MIC in the agar incorporation test; settings: Cutibacterium acnes, read-out: MIC Propionibacterium acnes
Protocol: as §5, §6, §7, §8, §9

[5] = agar incorporation, Mueller Hinton agar, 24 hours at 37° C.

Compound: CCN(CC)CCOc1ccccc1/C=C/c1ccc(/C=C/c2ccccc2OCCN(CC)CC)cc1 [formula 24]
- MIC [1, 5]: 3.8 µg/mL
- MIC (Actinomyces viscosus; ATCC43146, broth dilution 0.94-15 ppm, 7-10 days at 37° C. anaerobically, ATCC 43146, read-out: MIC Actinomyces viscosus): 3.75 µg/mL
- MIC (Porphyromnas gingivalis; broth dilution 0.94-15 ppm, Columbia bouillon, 7-10 days at 37° C. anaerobically, ATCC 33277): 1.9 µg/mL
- MIC [2]: 15 µg/mL
- MIC (Streptococcus gordonii; ATCC10558, broth dilution 0.94-15 ppm, 24 h aerobically with 10% CO2, ATCC 10558, read-out: MIC Streptococcus gordonii): 7.5 µg/mL
- MIC [3]: 15 µg/mL
- MIC (Prevotella nigrescens; ATCC33563, broth dilution 0.94-15 ppm, Columbia bouillon, 7-10 days at 37° C. anaerobically, ATCC 33563, read-out: MIC Prevotella nigrescens): 1.9 µg/mL
- MIC (Streptococcus mutans; ATCC33402, broth dilution 0.94-15 ppm, 24 h aerobically with 10% CO2, ATCC 33402, read-out: MIC Streptococcus mutans): 7.5 µg/mL
- Growth inhibition of Actinomyces viscosus after adsorption on hydroxyapatite discs [4]: growth inhibition
- MIC (Corynebacterium xerosis; ATCC373, agar incorporation, Mueller Hinton agar, 24 hours at 37° C., ATCC 373, read-out: MIC Corynebacterium xerosis): 3.8 µg/mL
- MIC (Staphylococcus epidermis; ATCC12228, agar incorporation, Mueller Hinton agar, 24 hours at 37° C., ATCC 12228, read-out: MIC Staphylococcus epidermis): 7.5 µg/mL
- MIC (Klebsiella pneumoniae): 120 µg/mL
- MIC (Staphylococcus aureus; ATCC6583, agar incorporation, Mueller Hinton agar, 24 hours at 37° C., ATCC 6583, read-out: MIC Staphylococcus aureus): 7.5 µg/mL
- MIC (Propionibacterium acnes; [5]): 3.8 µg/mL

Compound: CC[N+](C)(C)CCCOc1ccccc1/C=C/c1ccc(-c2ccc(/C=C/c3ccccc3OCCC[N+](C)(C)CC)cc2)cc1 [formula 33]
- MIC ([1]; 24 h): 7.8 µg/mL
- MIC (Actinomyces viscosus; ATCC43146, read-out: MIC Actinomyces viscosus): 3.8 µg/mL
- MIC (Porphyromnas gingivalis): 15 µg/mL
- MIC (Streptococcus gordonii; ATCC10558, 24 h, read-out: MIC Streptococcus gordonii): 3.75 µg/mL
- MIC (Prevotella nigrescens; ATCC33563, read-out: MIC Prevotella nigrescens): 3.75 µg/mL
- MIC (Streptococcus mutans; ATCC33402, 24 h, read-out: MIC Streptococcus mutans): 1.88 µg/mL
- Growth inhibition of Actinomyces viscosus after adsorption on hydroxyapatite discs [4]: growth inhibition
- MIC (Corynebacterium xerosis; ATCC373, 24 h, read-out: MIC Corynebacterium xerosis): 31.3 µg/mL
- MIC (Staphylococcus epidermis; ATCC12228, 24 h, read-out: MIC Staphylococcus epidermis): 3.9 µg/mL
- MIC (Staphylococcus aureus; ATCC6583, 24 h, read-out: MIC Staphylococcus aureus): 3.9 µg/mL
- MIC (Propionibacterium acnes; 24 h): 3.9 µg/mL
